Results reported in patent US20230183239A1, “ECTONUCLEOTIDE PYROPHOSPHATASE-PHOSPHODIESTERASE 1 (ENPP-1) INHIBITORS AND USES THEREOF” (AbbVie Inc., priority 2017, published 2023).

Experiments:
[1] = target: T1, ENPP1 (Homo sapiens, UniProt P22413); experiment: ENPP1 enzyme assay with cGAMP substrate (AMP-Glo); assay type: biochemical; set-up: purchased R&D Systems; conditions: for inhibition at 1 µM: 1 µM compound, read-out: cGAMP: % Inhibition at 1 µM
T1 sequence (P22413 1-925): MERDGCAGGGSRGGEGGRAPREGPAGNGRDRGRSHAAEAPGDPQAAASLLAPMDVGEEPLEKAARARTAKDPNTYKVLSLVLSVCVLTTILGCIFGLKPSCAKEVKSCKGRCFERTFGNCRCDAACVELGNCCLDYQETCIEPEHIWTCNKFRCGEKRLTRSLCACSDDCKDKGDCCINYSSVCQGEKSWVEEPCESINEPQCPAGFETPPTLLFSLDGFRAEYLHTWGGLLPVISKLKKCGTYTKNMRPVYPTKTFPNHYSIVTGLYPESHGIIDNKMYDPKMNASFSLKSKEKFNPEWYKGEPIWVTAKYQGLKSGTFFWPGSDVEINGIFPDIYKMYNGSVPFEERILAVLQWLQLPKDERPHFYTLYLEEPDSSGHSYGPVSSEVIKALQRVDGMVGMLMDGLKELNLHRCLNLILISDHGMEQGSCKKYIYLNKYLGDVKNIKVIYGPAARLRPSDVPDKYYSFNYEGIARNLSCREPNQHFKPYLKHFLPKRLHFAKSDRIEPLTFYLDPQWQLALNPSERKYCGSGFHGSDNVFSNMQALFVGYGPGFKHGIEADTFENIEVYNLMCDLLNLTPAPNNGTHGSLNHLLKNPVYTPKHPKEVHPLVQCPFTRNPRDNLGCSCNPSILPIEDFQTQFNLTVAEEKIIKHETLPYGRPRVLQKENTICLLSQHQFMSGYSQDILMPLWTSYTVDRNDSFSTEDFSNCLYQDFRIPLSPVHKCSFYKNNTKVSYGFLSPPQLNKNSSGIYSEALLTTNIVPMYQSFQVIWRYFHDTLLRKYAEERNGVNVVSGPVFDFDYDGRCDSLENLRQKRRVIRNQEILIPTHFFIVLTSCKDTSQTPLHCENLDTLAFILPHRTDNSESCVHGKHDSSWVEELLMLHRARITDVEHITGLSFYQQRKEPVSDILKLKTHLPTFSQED
Description: Example B1: ENPP1 Enzyme Assay With cGAMP Substrate
Ectonucleotide pyrophosphatase/phosphodiesterase 1 (ENPP-1) is a transmembrane glycoprotein that hydrolyzes nucleotides and nucleotide derivatives with the formation of nucleoside-5’-monophosphates. […] The 5’-AMP formed from the reaction is detected using the AMP-Glo® Kit (Promega). The assay kit contains two reagents. The first reagent terminates the enzymatic reaction, removes ATP (using adenylyl cyclase), and converts 5’-AMP produced into ADP (using polyphosphate: AMP phosphotransferase). The second reagent converts ADP to ATP (using adenylate kinase) and generates light from ATP using the luciferin/luciferase reaction.
Different concentrations of ENPP1 inhibitors are pre-incubated with 5 ng/well of human ENPP-1 enzyme (R&D Systems) for 15 minutes at 37° C. The reaction is initiated by adding 20 µM 2’3’-cGAMP and incubating for 30 minutes at 37° C. The final assay reaction mixture contains a buffer of 50 mM Tris pH 8.0, 250 mM NaCl, 0.5 mM CaCl2, 1 µM ZnCl2 and 1% DMSO. At the end of the incubation, the reaction is stopped by adding 12 µl of AMP-Glo reagent-1 and mixing the reaction uniformly for 5 minutes, followed by incubation at room temperature for one hour. Then 25 µl of AMP Glo reagent-2 is added to the reaction, mixed uniformly with a pipette, and incubated at room temperature for one hour to convert the ADP formed from reagent-1 to ATP and light. The generated light is measured in a Perkin Elmer Victor® instrument.
(§1) The IC50 values for percent inhibition versus compound concentration are determined by fitting the inhibition curves using a four-parameter variable slope model in GraphPad Prism® software. Ki values are derived from the IC50 values using the Cheng-Prusoff equation: […]

[2] = target: T1, ENPP1; experiment: ENPP1 enzyme assay with AMP-pNP substrate (hydrolysis of ATP analog); assay type: biochemical
In short: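 Human recombinant ENPP1 (60 ng/well) with 300 µM AMP-pNP in 50 mM Tris-HCl pH 8.5, 250 mM NaCl, 0.5 mM CaCl2, 1 µM ZnCl2, 0.1% DMSO, 20 min at 37 °C.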

[3] = target: T1, ENPP1; experiment: ENPP1 enzyme assay with TMP-pNP substrate; assay type: biochemical; set-up: purchased R&D Systems; conditions: Ki from IC50 by Cheng-Prusoff
Protocol: Example B2: ENPP1 Enzyme Assay With TMP-pNP Substrate
Ectonucleotide pyrophosphatase/phosphodiesterase 1 (ENPP-1) is a transmembrane glycoprotein that hydrolyzes nucleotides and nucleotide derivatives with the formation of nucleotide-5’-monophosphates. ENPP-1 hydrolyzes thymidine 5’monophosphate p-nitrophenyl ester (TMP-pNP) to nucleotide-5’-monophosphate and p-nitrophenol, which is a chromogenic product. The amount of p-nitrophenol product formed is measured using its absorbance at 405 nm, which is directly proportional to enzyme activity. Different concentrations of inhibitors are pre-incubated with 15 ng/well of human ENPP-1 enzyme (R&D Systems) for 15 minutes at 37° C. The reaction is initiated by adding 200 µM TMP-pNP and incubating for 10 minutes at 37° C. The final assay reaction mixture contains a buffer of 50 mM Tris pH 8.0, 250 mM NaCl, 0.5 mM CaCl2, 1 µM ZnCl2 and 1% DMSO. The amount of product formed is measured directly in a Tecan® spectrophotometer. Maximal activity control samples (containing enzyme, substrate, and buffer in the absence of ENPP1 inhibitors: MAX) and background control samples (containing enzyme, substrate, and buffer plus a fully inhibitory concentration (3 µM) of the reference ENPP1 Inhibitor, Example 333: MIN) are simultaneously evaluated in order to calculate the percent inhibition at each compound concentration as follows:
as §1, with “curves (percent inhibition versus inhibitor concentration)” for “curves”

[4] = target: T1, ENPP1; experiment: Indirect quantitation of 2',3'-cGAMP hydrolysis (AMP-Glo Assay kit); assay type: biochemical
[5] = target: T1, ENPP1; experiment: Substrate selectivity ratio, inhibition of cGAMP hydrolysis versus ATP hydrolysis; assay type: biochemical; conditions: ratio Ki AMP-pNP / Ki cGAMP
Protocol: The selectivity ratios for inhibition of cGAMP hydrolysis versus ATP hydrolysis were then calculated as follows: […]

[6] = system: IFN β gene transcription; experiment: IFNβ mRNA in cGAMP-stimulated human foreskin fibroblasts (HFF-1); assay type: cell-based; conditions: cGAMP-stimulated human foreskin fibroblast cells (HFF-1)
Protocol: Human Foreskin Fibroblasts
The cell line was sourced from ATCC (Cat# SCRC-1041). Cells were cultured in 15% fetal bovine serum-containing growth medium. They were seeded in a 48 well plate @ 100,000 per well (300 µL), and incubated for 1 hour at 37° C., 5% CO2. 100 µl of compound (0.05 µM to 5 µM final concentrations) was added 30 min prior to addition of cGAMP (12.5 µM & 25 µM final concentrations). The plate was incubated for 3 hrs at 37° C., 5% CO2. Cells were washed with PBS and 250 µl of RLT reagent (provided in the RNA isolation kit (RNeasy Mini kit, Qiagen Cat # 74106). was added to each well. RNA was isolated using this kit as per the given protocol. RNA was converted to cDNA using a Bio-Rad cDNA conversion kit (iScript® cDNA synthesis kit, Bio-Rad Cat #170-8891). IFN βgene transcription was quantitated using SYBR green dye in an RT-PCR instrument. The methods and protocol were the same as for PBMCs, except that Interferon mRNA levels were normalized to GAPDH mRNA.

[7] = system: IFNβ gene transcription; assay type: cell-based, human; conditions: 3, 6, and 19 hrs exposure; VACV-70 stimulated PBMCs
[8] = cGAMP substrate, Ki from IC50 by Cheng-Prusoff, read-out: cGAMP: Ki
[9] = AMP-pNP substrate (ATP analog), Ki from IC50 by Cheng-Prusoff, read-out: ENPP1 Inhibition _AMP-pNP: Ki
[10] = cGAMP substrate, Ki from IC50 by Cheng-Prusoff, read-out: ENPP1 Inhibition -cGAMP: Ki

Row | SMILES | Ki [1, 8] [µM] | Ki [2, 9] [µM] | Ki [3] [µM] | Ki [4, 10] [µM] | Substrate Selectivity: Ki_AMP-pNP/Ki_cGAMP [5] | inhibition at 10 µM ([1]; 10 µM compound, cGAMP substrate) [%] | transcription of IFNβ [6] | inhibition at 1 µM ([1]; cGAMP substrate) [%] | Ki [1] [µM] | Ki [2] [µM] | Ki [4] [µM] | transcription of IFNβ [7]
1 | COc1cc2ncnc(N3CCc4c(cccc4NS(N)(=O)=O)C3)c2cc1OC [Example 28, N-(2-(6,7-dimethoxyquinazolin-4-yl)-1,2,3,4-tetrahydroisoquinolin-5-yl)sulfamide] | < 0.1 | 0.1 to 1 | 0.1 to 1 | < 0.1 | 31.2 |  |  |  |  |  |  | 
2 | COc1cc2ncnc(N3CCC4(CC3)CCN(S(N)(=O)=O)C4)c2cc1OC [Example 29, 8-(6,7-dimethoxyquinazolin-4-+yl)-2,8-diazaspiro[4.5]decane-2-sulfonamide] | < 0.1 | < 0.1 | < 0.1 | < 0.1 | 19.2 | > 75 |  |  |  |  |  | 
3 | COc1cc2ncnc(-c3ccc4c(c3)CN(S(N)(=O)=O)CC4)c2cc1OC [Example 32, 7-(6,7-dimethoxyquinazolin-4-yl)-3,4-dihydroisoquinoline-2(1H)-sulfonamide] |  | < 0.1 |  | < 0.1 | 24.3 |  | enhances transcription of IFNβ | > 75 |  |  |  | 
4 | COc1cc2ncnc(NCc3ccc(NS(N)(=O)=O)cc3)c2cc1OC [Example 34, N-(4-(((6,7-dimethoxyquinazolin-4-yl)amino)methyl)phenyl) sulfamidetrifluoroacetate] | < 0.1 | 0.1 to 1 | < 0.1 | < 0.1 | 17.4 |  |  | > 75 |  |  |  | 
5 | CCN(C)S(=O)(=O)NCCC1CCN(c2ncnc3cc(OC)c(OC)cc23)CC1 [Example 42, 2-(1-(6,7-dimethoxyquinazolin-4-yl)piperidin-4-yl)ethan-1-amino(N-ethyl-N-methyl)sulfonamide] |  |  | > 1 |  | >96.1 |  |  |  | 0.1 to 1 | > 1 | 0.1 to 1 | 
6 | COc1cc2nccc(N3CCC(CCNS(N)(=O)=O)CC3)c2cc1OC [Example 43, N-(2-(1-(6,7-dimethoxyquinolin-4-yl)piperidin-4-yl)ethyl)sulfamide] | < 0.1 | 0.1 to 1 | < 0.1 | < 0.1 | 22.9 |  |  | > 75 |  |  |  | 
7 | COc1ccc2c(Oc3ccc(NS(N)(=O)=O)cc3)ccnc2c1 [Example 54, N-(4-((7-methoxyquinolin-4-yl)oxy)phenyl)sulfamide] |  |  |  |  |  |  |  |  |  | 0.1 to 1 | < 0.1 | enhances transcription of IFNβ
8 | COc1ccc2c(-c3ccc(CNS(N)(=O)=O)cc3)ccnc2c1 [Example 55, N-(4-(7-methoxyquinolin-4-yl)benzyl)sulfamide] |  |  |  |  |  |  | enhances transcription of IFNβ |  |  |  |  | 
9 | COc1cc2ncc(C#N)c(N3CCC4(CC3)CCN(S(N)(=O)=O)C4)c2cc1F [Example 57, 8-(3-cyano-6-fluoro-7-methoxyquinolin-4-yl)-2,8-diazaspiro[4.5]decane-2-sulfonamide] |  | < 0.1 |  | < 0.1 | 24.7 |  | enhances .transcription of IFNβ |  |  |  |  | 
10 | COc1ccc2c(Oc3ccc(S(N)(=O)=O)cc3)ccnc2c1 [Example 58, 4-((7-methoxyquinolin-4-yl)oxy)benzenesulfonamide] |  |  |  |  |  |  |  |  |  |  |  | enhances transcription of IFNβ
